± gives the expanded uncertainty stated by the source.
What was measured:
[1] = xn = mol fraction of the nth substance listed; conditions: 101 kPa, Liquid; for speed of sound: Sing-around technique in a fixed-path interferometer
[2] = refractive index (Na D-line) (dimensionless); xn = mol fraction of the nth substance listed; conditions: 101 kPa, Liquid, Standard Abbe refractometry

Cc1ccccc1O [2-methylphenol] + CCCCCCCCCCO
Conditions | mass density, 298.15 K [kg/m3] | mass density, 303.15 K [kg/m3] | mass density, 308.15 K [kg/m3] | refractive index, 298.15 K | refractive index, 303.15 K | refractive index, 308.15 K | speed of sound, 298.15 K [m/s] | speed of sound, 303.15 K [m/s] | speed of sound, 308.15 K [m/s]
[1], x1 = 0.0861 | 837.502 ± 0.53 | 834.018 ± 0.54 | 830.549 ± 0.54 | – | – | – | 1385.1 ± 1.1 | 1368 ± 1.1 | 1351.1 ± 1.1
[1], x1 = 0.1516 | 846.353 ± 0.51 | 842.829 ± 0.52 | 839.316 ± 0.53 | – | – | – | 1389.3 ± 1.1 | 1372.1 ± 1.1 | 1355.2 ± 1.1
[1], x1 = 0.2077 | 854.319 ± 0.49 | 850.761 ± 0.5 | 847.206 ± 0.51 | – | – | – | 1393 ± 1.1 | 1375.7 ± 1.1 | 1358.8 ± 1.1
[1], x1 = 0.2717 | 863.895 ± 0.47 | 860.293 ± 0.48 | 856.691 ± 0.49 | – | – | – | 1397.2 ± 1.1 | 1379.9 ± 1.1 | 1363.1 ± 1
[1], x1 = 0.334 | 873.784 ± 0.45 | 870.135 ± 0.46 | 866.475 ± 0.47 | – | – | – | 1401.6 ± 1.1 | 1384.3 ± 1.1 | 1367.4 ± 1
[1], x1 = 0.4103 | 886.741 ± 0.43 | 883.035 ± 0.43 | 879.298 ± 0.44 | – | – | – | 1407.6 ± 1.1 | 1390.3 ± 1.1 | 1373.2 ± 1
[1], x1 = 0.4797 | 899.465 ± 0.4 | 895.693 ± 0.41 | 891.869 ± 0.41 | – | – | – | 1413.7 ± 1.1 | 1396.5 ± 1 | 1379.2 ± 1
[1], x1 = 0.5545 | 914.345 ± 0.37 | 910.475 ± 0.38 | 906.559 ± 0.38 | – | – | – | 1421.3 ± 1.1 | 1404 ± 1 | 1386.8 ± 1
[1], x1 = 0.6165 | 927.694 ± 0.34 | 923.735 ± 0.35 | 919.727 ± 0.36 | – | – | – | 1428.4 ± 1.1 | 1411.1 ± 1 | 1394.1 ± 1
[1], x1 = 0.6875 | 944.316 ± 0.31 | 940.209 ± 0.32 | 936.089 ± 0.32 | – | – | – | 1437.8 ± 1.1 | 1420.7 ± 1 | 1403.7 ± 1
[1], x1 = 0.7538 | 961.343 ± 0.28 | 957.079 ± 0.28 | 952.828 ± 0.29 | – | – | – | 1448.2 ± 1.1 | 1431 ± 1 | 1414.1 ± 1
[1], x1 = 0.8245 | 981.399 ± 0.24 | 976.894 ± 0.24 | 972.475 ± 0.25 | – | – | – | 1461.2 ± 1.1 | 1444 ± 1 | 1426.8 ± 1
[1], x1 = 0.8811 | 999.121 ± 0.2 | 994.379 ± 0.21 | 989.769 ± 0.22 | – | – | – | 1473.5 ± 1.1 | 1456.2 ± 1 | 1439.1 ± 1
[1], x1 = 0.941 | 1019.75 ± 0.24 | 1014.71 ± 0.23 | 1009.79 ± 0.22 | – | – | – | 1488.8 ± 1.1 | 1471.6 ± 1.1 | 1454.4 ± 1
[1], x1 = 1 | 1042.32 ± 0.27 | 1036.94 ± 0.26 | 1031.55 ± 0.25 | – | – | – | 1504.6 ± 1.1 | 1487.4 ± 1.1 | 1470.3 ± 1
[2], x1 = 0.0861 | – | – | – | 1.43944 ± 0.00056 | 1.43742 ± 0.00057 | 1.43507 ± 0.00057 | – | – | –
[2], x1 = 0.1516 | – | – | – | 1.44351 ± 0.00057 | 1.44139 ± 0.00058 | 1.43893 ± 0.00059 | – | – | –
[2], x1 = 0.2077 | – | – | – | 1.44727 ± 0.00058 | 1.44505 ± 0.0006 | 1.44249 ± 0.00061 | – | – | –
[2], x1 = 0.2717 | – | – | – | 1.45185 ± 0.00061 | 1.44952 ± 0.00061 | 1.44685 ± 0.00062 | – | – | –
[2], x1 = 0.334 | – | – | – | 1.45667 ± 0.00063 | 1.45426 ± 0.00063 | 1.45145 ± 0.00064 | – | – | –
[2], x1 = 0.4103 | – | – | – | 1.46311 ± 0.00065 | 1.46058 ± 0.00066 | 1.45761 ± 0.00066 | – | – | –
[2], x1 = 0.4797 | – | – | – | 1.46956 ± 0.00068 | 1.46691 ± 0.00068 | 1.46379 ± 0.00068 | – | – | –
[2], x1 = 0.5545 | – | – | – | 1.47719 ± 0.00069 | 1.47444 ± 0.0007 | 1.47117 ± 0.0007 | – | – | –
[2], x1 = 0.6165 | – | – | – | 1.48412 ± 0.0007 | 1.48132 ± 0.00071 | 1.47792 ± 0.00072 | – | – | –
[2], x1 = 0.6875 | – | – | – | 1.49283 ± 0.00072 | 1.49001 ± 0.00073 | 1.48643 ± 0.00075 | – | – | –
[2], x1 = 0.7538 | – | – | – | 1.50182 ± 0.00074 | 1.49892 ± 0.00075 | 1.49522 ± 0.00076 | – | – | –
[2], x1 = 0.8245 | – | – | – | 1.51242 ± 0.00074 | 1.50948 ± 0.00076 | 1.50566 ± 0.00078 | – | – | –
[2], x1 = 0.8811 | – | – | – | 1.52175 ± 0.00074 | 1.51879 ± 0.00077 | 1.51489 ± 0.0008 | – | – | –
[2], x1 = 0.941 | – | – | – | 1.53252 ± 0.00075 | 1.52952 ± 0.00078 | 1.52555 ± 0.00081 | – | – | –
[2], x1 = 1 | – | – | – | 1.544 ± 0.0007 | 1.54099 ± 0.00078 | 1.53699 ± 0.00087 | – | – | –

Reference: the NIST ThermoML archive (doi:10.1021/je100362p)
